Assay [1] concerns Mycobacterium tuberculosis. Description: Antitubercular activity against clinical isolates of isoniazid/rifampicin/streptomycin/ethambutal resistant Mycobacterium tuberculosis after 7 days by REMA method. The class given is functional. Particulars: 168 h.
The test system of assay [2] is Mycobacterium tuberculosis. Description: Antitubercular activity against multi-drug resistant Mycobacterium tuberculosis. The class given is functional.

In brackets after ≈: the same amount, converted by molar mass.

In turn, `O=C(N/N=C/c1ccccc1Oc1no[n+]([O-])c1S(=O)(=O)c1ccccc1)c1ccncc1` displayed an MIC90 in assay [1] of 50 µM (≈ 23.3 µg/mL).
As for `O=C(N/N=C/c1ccc(O)cc1)c1ccncc1`, the MIC90 in assay [2] is over 62 µM.
`O=C(N/N=C/c1cccc(Oc2no[n+]([O-])c2S(=O)(=O)c2ccccc2)c1)c1ccncc1` gave an MIC90 in assay [1] of 21.3 µM (≈ 9.91 µg/mL).
On to `O=C(N/N=C/c1ccc(Oc2no[n+]([O-])c2S(=O)(=O)c2ccccc2)cc1)c1ccncc1`, for which the MIC90 in assay [1] amounted to 7 µM (≈ 3.26 µg/mL).
Consider `O=C(N/N=C/c1ccc(Oc2no[n+]([O-])c2-c2ccccc2)cc1)c1ccncc1`, for which the MIC90 in assay [1] is 24.3 µM (≈ 9.75 µg/mL).

These data come from ChEMBL document CHEMBL3872213, “Synthesis and biological activity of furoxan derivatives against Mycobacterium tuberculosis” (Eur J Med Chem, 2016).
